Test results reported in patent US12344863B2, “Method of producing stem cell-derived endothelial cells and uses thereof” (Emory University, priority 2016, dated 2025).

What was measured:
[1] = tested on: mesodermally differentiated hPSCs; experiment: Endothelial differentiation of mesodermally differentiated hPSCs with or without DLL4 (qRT-PCR, flow cytometry); type: cell-based, human
Excerpt: Flow cytometric analyses also confirmed increases in PECAM1, CDH5, and VWF (FIG. 1D) and decreases in PTPRC (CD45), CD34, KIT (CD117), and PROM1 (CD133). […] Similar results were found in three hESC lines (H1, H7, and H9) and two hiPSC lines (BJ1 and PGP1) by flow cytometry and qRT-PCR. […] Immunocytochemistry confirmed expression of EC markers VWF and CDH5 as well.

hESCs (H9) = experiment: Mesodermal differentiation of hPSCs with CHIR99021 (qRT-PCR, flow cytometry); type: cell-based, human
Procedure: A clinically compatible stepwise protocol was developed which follows endothelial development (FIG. 1A). To develop a fully defined system, KnockOut™ Serum Replacement substituted for animal serum and feeder cells. As a first step, two coating materials were compared (collagen and Matrigel™), and induced differentiation of hPSCs into the mesodermal lineage using CHIR99021, a GSK3β inhibitor which mimics Wnt activation. hESCs (H9) were plated onto dishes coated with 0.01% collagen or 10% Matrigel™ and were cultured for 3, 5, and 7 days in hESC medium with or without 3 µM CHIR99021. […] Flow cytometry analyses confirmed that the percentage of KDR+ cells was highest (51.2±4.3%) under these conditions.
The hESCs (H1, H7, and H9) and hiPSCs (BJ1 and PGP1 obtained from Dr. George Daley) were cultured in mTeSR™ 1 (STEMCELL Technologies) on 5% matrigel at 37° C., 5% CO2. For directed differentiation, enzymatically dissociated clumps of hPSCs (lower than passage 60) were cultured on 0.01% collagen-coated plates in DMEMF-12 including 20% Serum Replacement (SR) with or without addition of specific differentiation factors for 7-10 days. hPSCs were cultured on collagen coated plates for an additional 14 days.

DLL4: polypeptide comprising a mature human or mammalian peptide sequence encoded by a DLL4 gene; a Notch ligand
PECAM1, CDH5, and VWF by flow cytometry ([1]; day 14, with vs without DLL4): increases | PTPRC (CD45), CD34, KIT (CD117), and PROM1 (CD133) by flow cytometry ([1]; day 14, with vs without DLL4): decreases | KDR, PECAM1, CDH5 and VWF expression ([1]; qRT-PCR, day 14, addition of DLL4): further increased

Cc1cnc(-c2cnc(NCCNc3ccc(C#N)cn3)nc2-c2ccc(Cl)cc2Cl)[nH]1 [CHIR99021, 6-[[2-[[4-(2,4-dichlorophenyl)-5-(5-methyl-1H-imidazol-2-yl)-2-pyrimidinyl]amino]ethyl]amino]-3-pyridinecarbonitrile]
percentage of KDR+ cells (hESCs (H9); hESCs (H9), collagen coating, 3 µM CHIR99021, 3 days, flow cytometry): 51.2±4.3% | POU5F1 (OCT4) expression (hESCs (H9); qRT-PCR): reduced | expression of definitive ectoderm (SOX1) and endoderm (FOXA2) markers (hESCs (H9); qRT-PCR): not significantly changed | T (Brachyury) and KDR transcripts (hESCs (H9); qRT-PCR, collagen coating and CHIR99021 treatment for 3 days, vs Matrigel, 5 and 7 days, no CHIR99021): most highly expressed
